Results taken from US8716342B2, “Method for preparing molecular complexes between adapalene and cyclodextrins” (Galderma Research & Development, priority 2009, dated 2014).

Assay: Kinetics of dissolution at 3 g/l and at 25° C. in water (adapalene solubilized, HPLC; pH of the solution at the end)
Format: physicochemical
Procedure: b) Kinetics of Dissolution at 3 g/l and at 25° C.
The chromatographic conditions and the concentrations of the control solutions are the same as those of the assay.
• Stirring: 15-position bench • Thermostated bath: 25° C. +/−2° C. verified on Prolabo PR 531 probe • HPLC Waters 2690-Detector 2487/2996 • Weighing out: Sartorius A200 balance • Dilutions: Eppendorf Research 1000, Eppendorf Research 5000, Gilson M1000 micropipette • Ultrapure water station: ELGA Operating conditions:
A test sample equivalent to 150 mg of Adapalene is introduced into a 100 ml Erlenmeyer flask. 50 ml of water are added. The mixture is stirred magnetically at 400 rpm or position 4 in a waterbath at 25° C. +/−2° C. A 2 ml sample is withdrawn at 15, 30, 60, 120 and 1140 minutes, while stirring magnetically. These withdrawn samples are filtered through 0.45 μm Gelman GHP Acrodisc polypropylene filters. The solution must be clear. The withdrawn samples are diluted by a factor “a” in the mobile phase, making it possible to have an Adapalene peak of surface area included between the surface areas of Control 1 and Control 5.
10 μl of each control solution are injected. A linear regression of the surface areas of the Adapalene peaks relative to the concentrations is performed.
10 μl of the solution to be examined are injected.
The area of the Adapalene peak in each solution to be examined is measured.
The concentration X in μg/ml is deduced therefrom according to the regression line of the controls.
The concentration in μg of Adapalene solubilized per ml is calculated with the formula: [Adapalene] in μg/ml=X×a
The variation in the amount dissolved in μg/ml as a function of time is represented on a graph.
At the end of dissolution, the appearance is immediately noted and the pH of the solution immediately measured.

COc1ccc(-c2ccc3cc(C(=O)O)ccc3c2)cc1C12CC3CC(CC(C3)C1)C2 [Adapalene alone, 6-(3-(1-adamantyl)-4-methoxyphenyl)-2-naphthoic acid]
pH of dissolution, 15 minutes (15 minutes): (5.7)
pH of dissolution, 7 days (7 days): (5.7)
Dissolution, 15 minutes (maturation temperature 85° C., 15 minutes): 0 µg/mL
Dissolution, 7 days (maturation temperature 85° C., 7 days): 0 µg/mL
